Assay results reported in patent US10954237B2, “JAK inhibitors containing a 4-membered heterocyclic amide” (THERAVANCE BIOPHARMA R&D IP, LLC, priority 2017, dated 2021).

How the values were obtained:
[1] = tested on: IFNγ induced CXCL10 secretion; experiment: IFNγ induced CXCL10 in human 3D airway cultures; type: cell-based
Protocol: EpiAirway tissue cultures were obtained from Mattek (AIR-100). Cultures were derived from asthmatic donors. In a cell culture insert, human derived tracheal/bronchial epithelial cells were grown and differentiated on a porous membrane support, allowing an air-liquid interface with warmed culture medium below the cells and a gaseous test atmosphere above. Tissues were cultured in maintenance media (Mattek, AIR-100-MM) in a 37° C., 5% CO2 humidified incubator. Four donors were tested. On Day 0, tissue cultures were treated with test compounds at 10 μM, 1 μM and/or 0.1 μM. Compounds were diluted in dimethyl sulfoxide (DMSO, Sigma) to a final concentration of 0.1%. DMSO at 0.1% was used as a vehicle control. Test compounds were incubated with cultures for 1 hour at 37° C., 5% CO2, followed by the addition of pre-warmed media containing IFNγ (R&D Systems) or IL-27 (R&D Systems) at a final concentration at 100 ng/ml. Tissue cultures were maintained for 8 days. Media was replaced every 2 days with fresh media containing compounds and IFNγ or IL-27. On Day 8, tissue cultures and supernatants were collected for analysis. […] Data is expressed as % Inhibition+/−standard deviation (±STDV). Percent inhibition was determined by compound inhibitory potency against IFNγ or IL-27 induced CXCL10 or CXCL9 secretion compared to vehicle treated cells. […]

[2] = tested on: IL-6 stimulated STAT3 phosphorylation in CD3+ T cells; experiment: Inhibition of IL-6 stimulated pSTAT3 in CD3+ T cells; type: cell-based, human
From the text: A protocol analogous to that of Assay 10 was used to determine the potency of the test compound for inhibition of interleuken-6 (IL-6) stimulated STAT3 phosphorylation. An Alexa Fluor 647 conjugated anti-pSTAT3 antibody (pY705, Clone 4/P, BD Biosciences) was used to detect STAT3 phosphorylation.

[3] = tested on: IL-5 mediated survival of human eosinophils; experiment: IL-5 mediated eosinophil survival assay; type: cell-based
Protocol: The potency of the test compound for IL-5 mediated eosinophil survival was measured in human eosinophils isolated from human whole blood (AllCells). Because IL-5 signals through JAK, this assay provides a measure of JAK cellular potency.
Human eosinophils were isolated from fresh human whole blood (AllCells) of healthy donors. Blood was mixed with 4.5% Dextran (Sigma-Aldrich) in a 0.9% sodium chloride solution (Sigma-Aldrich). Red blood cells were left to sediment for 35 minutes. The leukocyte rich upper layer was removed and layered over Ficoll-Paque (GE Healthcare) and centrifuged at 600 g for 30 minutes. The plasma and mononuclear cell layers were removed before the granulocyte layer was lysed with water to remove any contaminating red blood cells. […] Purity was analyzed using a LSRII flow cytometer (BD Biosciences). […]
After cytokine stimulation, cells were centrifuged at 300 g for 5 min and washed twice with cold DPBS (Life Technologies). To access viability and apoptosis, cells were incubated with Propidium Iodide (Thermo Fisher Scientific) and APC Annexin V (BD Biosciences) and analyzed using a LSRII flow cytometer (BD Biosciences). IC50 values were determined from analysis of the viability curves of percent cell viability vs compound concentration. Data are expressed as pIC50 (negative decadic logarithm IC50) values.

[4] = tested on: IL-2/anti-CD3 stimulated IFNγ in human PBMCs; experiment: Inhibition of IL-2/anti-CD3 stimulated IFNγ in human PBMCs; type: cell-based
Protocol: The potency of the test compound for inhibition of interleukin-2 (IL-2)/anti-CD3 stimulated interferon gamma (IFNγ) was measured in human peripheral blood mononuclear cells (PBMCs) isolated from human whole blood (Stanford Blood Center). Because IL-2 signals through JAK, this assay provides a measure of JAK cellular potency.
(1) Human peripheral blood mononuclear cells (PBMC) were isolated from human whole blood of healthy donors using a ficoll gradient. Cells were cultured in a 37° C., 5% CO2 humidified incubator in RPMI (Life Technologies) supplemented with 10% Heat Inactivated Fetal Bovine Serum (FBS, Life Technologies), 2 mM Glutamax (Life Technologies), 25 mM HEPES (Life Technologies) and 1× Pen/Strep (Life Technologies). Cells were seeded at 200,000 cells/well in media (50 μL) and cultured for 1 h. Compounds were serially diluted in DMSO and then diluted another 500-fold (to a 2× final assay concentration) in media. […]
(2) After cytokine stimulation, cells were centrifuged at 500 g for 5 min and supernatants removed and frozen at −80° C. To determine the inhibitory potency of the test compound in response to IL-2/anti-CD3, supernatant IFNγ concentrations were measured via ELISA (R&D Systems). IC50 values were determined from analysis of the inhibition curves of concentration of IFNγ vs compound concentration. Data are expressed as pIC50 (negative decadic logarithm IC50) values.

[5] = Pharmacokinetics in plasma and lung in mouse; type: in vivo; settings: oral aspiration, lung AUC / plasma AUC

SMILES	inhibition at 10 µM [1]	IL-6 signaling (in words) [2]	IL-5 mediated human eosinophil survival (in words) [3]	anti-CD3 and IL-2 induced release of IFNγ from activated human peripheral blood-isolated T cells (in words) [4]	Lung to Plasma ratio Assay 3 [5]
CCc1cc(O)c(F)cc1-c1ccc2c(-c3nc4c([nH]3)CN(C(C)C)[C@H](C(=O)N3CC(N(C)C)C3)C4)n[nH]c2c1 [Example 2, (S)-(3-(dimethylamino)azetidin-1-yl)(2-(6-(2-ethyl-5-fluoro-4-hydroxyphenyl)-1H-indazol-3-yl)-5-isopropyl-4,5,6,7-tetrahydro-3H-imidazo[4,5-c]pyridin-6-yl)methanone]	101%	inhibit	potently inhibit	inhibit	–
CCCN1Cc2[nH]c(-c3n[nH]c4cc(-c5cc(F)c(O)cc5CC)ccc34)nc2C[C@H]1C(=O)N1CC(N(C)C)C1 [Example 4, (S)-(3-(dimethylamino)azetidin-1-yl)(2-(6-(2-ethyl-5-fluoro-4-hydroxyphenyl)-1H-indazol-3-yl)-5-propyl-4,5,6,7-tetrahydro-3H-imidazo[4,5-c]pyridin-6-yl)methanone]	–	–	–	–	C (C denotes a ratio between 20 and 50)
